Data on 4 compounds can be found in article PMC9968691, “Perfluoroalkyl substances (PFASs) are substrates of the renal human organic anion transporter 4 (OAT4)” (Archives of Toxicology, 2022).

The conditions of data set [1]: cited from earlier work; for Reported half-life in humans: (average) serum half-life, ref Xu et al. (2020) for PFHpA, Olsen et al. (2007), Li et al. (2018), Xu et al. (2020) for PFOA, PFHxS, PFOS, Olsen et al. (2009) for PFBS; for Reported (average) serum half-life in humans: ref Olsen et al. (2009) for PFBS, Xu et al. (2020) for PFHpA.
For a further data set, the target named is T1, human URAT1 (Homo sapiens, UniProt Q96S37).
T1 construct: expressed in transfected cells; host or cells: HEK293 cells transduced with recombinant baculovirus (CMV promoter)
T1 sequence (Q96S37 1-553): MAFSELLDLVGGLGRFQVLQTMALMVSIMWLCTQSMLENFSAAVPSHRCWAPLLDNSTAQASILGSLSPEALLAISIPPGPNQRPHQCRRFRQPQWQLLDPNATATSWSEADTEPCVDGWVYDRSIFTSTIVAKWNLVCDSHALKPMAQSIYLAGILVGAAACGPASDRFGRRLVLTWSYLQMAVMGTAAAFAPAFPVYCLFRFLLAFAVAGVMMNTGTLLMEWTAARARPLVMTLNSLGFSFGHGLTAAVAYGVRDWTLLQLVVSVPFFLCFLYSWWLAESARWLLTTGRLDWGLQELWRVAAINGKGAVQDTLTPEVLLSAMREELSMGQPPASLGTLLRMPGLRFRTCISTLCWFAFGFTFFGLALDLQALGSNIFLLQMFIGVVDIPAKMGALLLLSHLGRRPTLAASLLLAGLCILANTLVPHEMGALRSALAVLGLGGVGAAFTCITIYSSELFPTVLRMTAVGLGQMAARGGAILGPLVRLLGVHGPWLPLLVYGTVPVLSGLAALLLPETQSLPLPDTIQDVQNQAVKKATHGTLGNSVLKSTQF
As to the kind of experiment: Screening of cellular PFAS accumulation in URAT1-transfected vs control-transfected HEK293 cells (PFAS mixture). Format: cell-based. To be noted: yes/no as identified in vitro in this study. The source says:
(§1) The recombinant baculoviruses that contain the cDNA of human transporters OAT4 and URAT1 downstream of a cytomegalovirus (CMV) promotor were generated as previously described (Smeets et al. [2020]). As a negative control, baculovirus containing the gene for enhanced yellow fluorescence protein (eYFP) was produced similarly. Moreover, transduction of HEK293 cells and uptake assays were essentially performed as previously described (Smeets et al. [2020]). The culture medium was removed and cells were washed with buffer (HBSS plus 10 mM HEPES, pH 7.4). Uptake was initiated by replacing this solution with 150 µL of fresh transport buffer (HBSS (Life Technologies Invitrogen (Carlsbad, CA, USA))-HEPES (Sigma-Aldrich), pH 7.4) supplemented with the PFASs for 10 min. To terminate the reaction, transport buffer was replaced with 400 µL ice-cold HBSS-HEPES buffer containing 0.5% BSA (m/v; Roche Diagnostics GmbH (Mannheim, Germany)), after which the cells were washed twice with ice-cold HBSS-HEPES. Cellular PFAS concentrations were determined based on the method described by Rosenmai et al. ([2018]). Briefly, cells were solubilised in 250 µL lysis buffer and cell lysates were stored in Eppendorf tubes at − 80 °C and defrozen when needed for LC–MS analysis and for quantification of the protein concentration.
(§2) To 50 μL cell lysate, 850 μL methanol (Actu-All Chemicals, Oss, The Netherlands) containing internal standards (^13C4-PFHpA, ^13C4-PFOA, ^13C5-PFNA, ^13C2-PFDA, ^13C3-PFBS, ^18O2-PFHxS and ^13C4-PFOS (Wellington Laboratories, Canada) was added. These dilutions were vortexed well before centrifugation at maximum speed for 10 min at 4 °C. PFAS concentrations in the supernatant were determined using LC–MS/MS analysis. If required, samples were further diluted with methanol and containing internal standards. LC–MS/MS analysis was based on a Shimadzu UHPLC system containing: 2 pumps (LC 20AD xr); column oven (Shimadzu CTO-20AC); pump switch (Shimadzu FCV-11AL); degasser (Shimadzu DGU-20A3); and sample tray holder (Shimadzu SIL-20 AC XR model) (Shimadzu Corporation, Kyoto, Japan). An Acquity BEH-C18 analytical column (50 × 2.1 mm i.d., 1.7 μm, Waters, Milford, MA, USA) was used to separate the PFASs at a column temperature of 35 °C. In addition, a symmetry C18 analytical column (50 × 2.1 mm i.d., 5 µm, Waters, Milford, MA, USA) was used as a guard column, placed between the pump and the injector valve to isolate and delay interferences out of the LC system. The mobile phase consisted of 2 mM ammonium acetate (Merck Millipore, Darmstadt, Germany) in Milli-Q water (prepared using a Milli-Q system with a resistivity of at least 18.2 MΩ cm^−1 (Merck Millipore)) (mobile phase A) and Acetonitrile ULC/MS grade (Actu-All Chemicals, Oss, The Netherlands) (mobile phase B). The injection volume used was 20 μL. The chromatographic gradient was operated at a flow rate of 0.3 mL min^−1 starting from 25% mobile phase B in the first 0.1 min, a linear increase to 100% B in 6 min with a final hold of 2.5 min. The gradient was returned to 25% B within 0.1 min for 3.9 min to equilibrate before the next injection, resulting in a total run of 12.5 min.
(§3) Cellular PFAS content was normalised to cellular protein. To that end, from each cell lysate, 25 µL was used to determine the protein concentration (technical duplicate) using the Pierce BCA Protein Assay Kit (Thermo Scientific, Waltham, MA). First, samples were diluted two times with lysis buffer directly in a 96-wells plate (PS, F-bottom, clear; Greiner Bio-One, Alphen aan de Rijn, The Netherlands), and in each plate, a BSA standard curve (0.05–2 mg mL^−1 in lysis buffer) was included allowing protein quantification of the samples. The manufacturer’s protocol was followed for the subsequent steps and absorbance was measured using a microplate reader (Synergy™ HT BioTek, Winooski, VT) at 562 nm. […]

In another data set the target is T2, human OAT4 (Homo sapiens, UniProt Q9NSA0).
T2 construct: expressed in transfected cells; host or cells: HEK293 cells transduced with recombinant baculovirus (CMV promoter)
T2 sequence (Q9NSA0 1-550): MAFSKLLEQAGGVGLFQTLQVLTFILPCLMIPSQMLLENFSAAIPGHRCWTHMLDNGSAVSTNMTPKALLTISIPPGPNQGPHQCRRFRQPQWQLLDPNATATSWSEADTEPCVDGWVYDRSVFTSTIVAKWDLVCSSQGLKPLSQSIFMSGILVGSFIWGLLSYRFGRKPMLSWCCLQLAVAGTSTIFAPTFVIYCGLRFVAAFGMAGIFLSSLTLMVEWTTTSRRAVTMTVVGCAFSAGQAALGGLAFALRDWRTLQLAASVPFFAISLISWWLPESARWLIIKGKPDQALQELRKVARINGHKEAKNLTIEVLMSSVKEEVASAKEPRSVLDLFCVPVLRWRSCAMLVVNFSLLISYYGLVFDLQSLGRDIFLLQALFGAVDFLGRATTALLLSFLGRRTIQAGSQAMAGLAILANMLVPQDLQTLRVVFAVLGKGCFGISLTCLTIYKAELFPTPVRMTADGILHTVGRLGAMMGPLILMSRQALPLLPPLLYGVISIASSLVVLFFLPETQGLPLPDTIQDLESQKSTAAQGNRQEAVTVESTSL
Briefly: Screening of cellular PFAS accumulation in OAT4-transfected vs control-transfected HEK293 cells (PFAS mixture). Format: cell-based. To be noted: for Transport by OAT4 (cellular PFAS level in OAT4-transfected vs control-transfected cells; substantial = at least twofold higher): PFAS mixture, each 1 µM, 10 min; for OAT4 substrate: yes/no as identified in vitro in this study.
Text: as §1, §2, §3

A further data set has as its system albumin. To be noted: cited from earlier work; for Reported albumin/water partition coefficients: ref Allendorf et al. (2019).

“Also recorded” adds a separate entry of the source. Marks after values point to notes of the source that are not given here.

On to `O=S(=O)(O)C(F)(F)C(F)(F)C(F)(F)C(F)(F)F` [PFBS, perfluorobutane sulfonate], for which, in data set [1], the “Reported half-life in humans” value is 0.07–0.12^d years and the “Reported (average) serum half-life in humans” value is on record as 26 to 44 days. Further, the URAT1 substrate result at human URAT1 is “No”. Further, on human OAT4, the “Transport by OAT4 (cellular PFAS level in OAT4-transfected vs control-transfected cells; substantial = at least twofold higher)” value is “rather limited; also recorded: limited transport” and the OAT4 substrate result is “No”. Besides, the Binding to albumin result in the data set on albumin (compared to the other PFASs, ref Allendorf et al. 2019, Gao et al. 2019, Lu et al. 2021) is recorded as “relatively low binding to albumin”.

Turning to `O=C(O)C(F)(F)C(F)(F)C(F)(F)C(F)(F)C(F)(F)C(F)(F)C(F)(F)C(F)(F)C(F)(F)F` [PFDA, perfluorodecanoic acid], at human URAT1, the URAT1 substrate entry was “No”. On human OAT4, the “Transport by OAT4 (cellular PFAS level in OAT4-transfected vs control-transfected cells; substantial = at least twofold higher)” value is recorded as “substantial transport; also recorded: more than twofold increase” and the OAT4 substrate entry is given as “Yes”. Also, the “Reported albumin/water partition coefficients” value with albumin was 4.7 L/kg.

For `O=S(=O)(O)C(F)(F)C(F)(F)C(F)(F)C(F)(F)C(F)(F)C(F)(F)F` [PFHxS, Perfluorohexane sulfonate], in data set [1], the “Reported half-life in humans” value is recorded as 2.9–8.5^c years. The URAT1 substrate result at human URAT1 is reported as “No”. On human OAT4, the “Transport by OAT4 (cellular PFAS level in OAT4-transfected vs control-transfected cells; substantial = at least twofold higher)” value was “substantial transport; also recorded: more than twofold increase” and the OAT4 substrate result is listed as “Yes”.

In the case of `O=C(O)C(F)(F)C(F)(F)C(F)(F)C(F)(F)C(F)(F)C(F)(F)F` [PFHpA, Perfluoroheptanoic acid], in data set [1], the “Reported half-life in humans” value is 0.17^b years and the “Reported (average) serum half-life in humans” value is reported as 62 days. In addition, the URAT1 substrate result on human URAT1 is given as “No”. Also, on human OAT4, the “Transport by OAT4 (cellular PFAS level in OAT4-transfected vs control-transfected cells; substantial = at least twofold higher)” value is reported as “substantial transport; also recorded: more than twofold increase” and the OAT4 substrate entry was “Yes”. In the data set on albumin, the “Reported albumin/water partition coefficients” value was 4.0 L/kg.
